Measured values from patent publication US5466717A, “Halogenated 4'-methoxyacetophenones as microbicides and preservatives” (Buckman Laboratories Int'l, Inc., priority 1993, dated 1995).

Key:
[1] = system: Desulfovibrio desulfuricans; experiment: Effectiveness against sulfate reducing bacterium, Method API Rp 38 (Table 7); type: cell-based; parameters: key: +: growth; 0: no growth; details: pH 7.0, duplicates
Procedure: The effectiveness of compounds 1 and 2 against Desulfovibrio desulfuricans,a sulfate reducing bacterium, was determined using the method recommended by the American Petroleum Institute (Method API Rp 38). The composition of the sulfate-reducer medium for the bacteriostatic test is as follows: The ingredients are dissolved by gentle heating with constant stirring. […] If necessary, the medium is then filtered through Whatman No. 1 or No. 2 filter paper. Following filtration, the medium is autoclaved at 15 lb steam pressure for […]. After autoclaving, the medium is allowed to cool slightly and the iron salt, Fe(SO4)2 (NH4)2.6H2 O, is added. The pH is then checked and readjusted if necessary. The medium is now cooled to room temperature as rapidly as possible, without agitation. After cooling, the medium is inoculated from the third successive 24-hour transfer of an actively growing culture (a liquid culture which turns black within 24 hours after inoculation) of sulfate-reducing bacteria. Ten milliliters of inoculum are added to each liter of medium. From stock solutions of the chemical to be screened, sufficient amounts of the compounds are added to 1- or 2-oz clear bottles so that the desired concentrations of chemicals are present when the containers are filled. The amount of stock solution added cannot exceed 10 percent of the volume of the test bottle. After addition of the chemical, the bottles are completely filled with the inoculated medium. The bottles are then capped with plastic caps containing cork and aluminum foil or Teflon liners and are incubated at 30°±2° C. All work is done in duplicate with at least three controls for each series. The controls consist of bottles filled with inoculated medium only. Growth of sulfate-reducing bacteria in the bottles is indicated by an intense blackening of the medium, whereas containers having sufficient chemical to inhibit growth will remain clear. Bottles with no sulfate-reducing bacteria growth are observed for a period of 28 days after the controls have blackened. The results were recorded using a +/0 scale where "+" indicates growth and "0" indicates no growth.

[2] = system: Aspergillus sp., Aureobasidium sp., Trichoderma sp., Penicillium sp., and Chaetomium sp.; experiment: Resistance to growth of mold on the surface of interior coatings in an environmental chamber, ASTM D3273-86 (Table 4); parameters: key: 10: no mold growth; 9: very slight mold growth; 8: slight growth; 7: slight to medium growth; 6: slight to medium growth; 5: failure (extensive growth)
Procedure: A standard method to determine the resistance to growth of mold on the surface of interior coatings in an environmental chamber, ASTM method D3273-86, was used to determine the effectiveness of compounds 1 and 2.
Treatments were prepared by dissolving 2.0 g of the compounds of the present invention in 10 mL of acetone/methanol. Two types of paint were used: namely, an alkyd (self-priming white with Beckasol 296-70) and a latex (self-priming, alkyd-modified acrylic paint). […] Each sample was shaken vigorously for 5 minutes using a standard paint shaker.
Blocks of drywall having two inch by four inch dimensions were painted on the front surface and on all edges with two coats of the respective treatments. After drying, the back side was painted with one coat of clear latex. A hole was drilled half-way through the block at one end, and duplicate blocks per treatment were hung in an environmental chamber.
The aggressive nature of the interior of the chamber was developed by inoculating trays of moist potting soil with active cultures of Aspergillus sp., Aureobasidium sp., Trichoderma sp., Penicillium sp., and Chaetomium sp. The chamber was maintained at 100 percent relative humidity and 32° C. Final observations were made after four weeks (for latex blocks) or eight weeks (for alkyd blocks).

Aspergillus niger = experiment: Inhibition of Aspergillus niger, modified pulp substrate method (Table 3); type: cell-based; parameters: key: 4: excellent; 3: good; 2: poor; 1: very poor, scant, questionable; 0: no growth; details: pH 4.5 to 5.0
Procedure: The growth inhibiting activity of compounds 1 and 2 on the fungus Aspergillus niger was evaluated. A variation of the pulp substrate method of Example 2 was used.
When fungi are used as test organisms, the pulp-substrate test method is modified to permit the growth of fungi. The pulp substrate comprises an aqueous slurry of spruce groundwood containing 1 percent by weight (dry basis) of wood fibers enriched by the addition of 0.26 percent of sodium nitrate and 0.64 percent of maltose (technical grade). Forty-gram portions of the enriched groundwood pulp slurry were added to 250 mL Erlenmeyer flasks fitted with loose metal caps and were then sterilized. Each of the following substances was then added to the flasks in the order listed:
(1) Sterile, demineralized water as required in each individual case was added to bring the total weight of the contents of each flask to 50 grams, after allowing for all subsequent additions specified hereinafter (including inoculation with the aqueous suspension of spores and/or mycelial fragments of the test fungus).
(2) One milliliter of a 2.0 percent by weight sterile solution of rosin size. Rosin size is the pasty sodium soap of rosin containing approximately 20 to 30 percent free rosin and 30 percent water. A suitable rosin size is that known as rosin size 70D made by Papermaker's Chemical Department, Hercules, Inc., Kalamazoo, Mich.
(3) A solution of the toxicant or control agent to be evaluated in each test, to give the concentration desired in parts per million by weight.
(4) A sterile solution of buffer salts to adjust the substrate to a pH of 4.5 to 5.0, prepared from 0.2M solutions of potassium acid phthalate and sodium hydroxide. The buffer mixtures were prepared according to the procedures set forth in U.S. Pat. No. 2,881,070.
(5) Inoculum consisting of 1 milliliter of an aqueous suspension of spores and/or mycelial fragments of the test organism, Aspergillus niger.
After the inoculant suspensions of the test fungi were added, the flasks were incubated at a temperature of 30°±1° C. for a period adequate for growth to occur in the controls (portions of inoculated pulp substrate which contained no toxicant). The customary periods of incubation were 7 and 14 days. Growth was recorded after each period on the basis of the following key: […]

E. aerogenes = experiment: Basal salts method, percentage kill of E. aerogenes (Table 5); type: cell-based, Enterobacter aerogenes; details: Klebsiella aerogenes
Procedure: Compounds 1 and 2 were tested against bacterial growth by the basal salts method described in U.S. Pat. No. 2,881,070, Column 5, line 12--Column 6, line 53. The disclosure of U.S. Patent No. 2,881,070 is specifically incorporated here by reference.

[3] = 0.01 % by weight, alkyd, eight weeks
[4] = 0.01 % by weight, latex, four weeks
[5] = 0.025 % by weight, alkyd, eight weeks
[6] = 0.025 % by weight, latex, four weeks
[7] = 0.05 % by weight, alkyd, eight weeks
[8] = 0.05 % by weight, latex, four weeks
[9] = 0.10 % by weight, alkyd, eight weeks
[10] = 0.10 % by weight, latex, four weeks
[11] = 0.25 % by weight, alkyd, eight weeks
[12] = 0.25 % by weight, latex, four weeks
[13] = 0.50 % by weight, alkyd, eight weeks
[14] = 0.50 % by weight, latex, four weeks

Compound | growth of Desulfovibrio desulfuricans ([1]; 1 ppm) | growth of Desulfovibrio desulfuricans ([1]; 2 ppm) | growth of Desulfovibrio desulfuricans ([1]; 8 ppm) | Growth of mold on the surface of interior coatings [2, 3] | Growth of mold on the surface of interior coatings [2, 4] | Growth of mold on the surface of interior coatings [2, 5] | Growth of mold on the surface of interior coatings [2, 6] | Growth of mold on the surface of interior coatings [2, 7] | Growth of mold on the surface of interior coatings [2, 8] | Growth of mold on the surface of interior coatings [2, 9] | Growth of mold on the surface of interior coatings [2, 10] | Growth of mold on the surface of interior coatings [2, 11] | Growth of mold on the surface of interior coatings [2, 12] | Growth of mold on the surface of interior coatings [2, 13] | Growth of mold on the surface of interior coatings [2, 14] | Inhibition of Aspergillus niger, growth after 14 days (Aspergillus niger; 5 ppm) | Inhibition of Aspergillus niger, growth after 14 days (Aspergillus niger; 10 ppm) | Inhibition of Aspergillus niger, growth after 14 days (Aspergillus niger; 25 ppm) | Inhibition of Aspergillus niger, growth after 14 days (Aspergillus niger; 100 ppm) | killing at 2 ppm (E. aerogenes; pH 8.0) [%] | further results
COc1ccc(C(=O)C(Br)Br)cc1Br [Compound 2, 2,2,3'-tribromo-4'-methoxyacetophenone] | + | + | + | 5 | 9 | 5 | 10 | 6 | 10 | 8 | 10 | 10 | 10 | 10 | 10 | 4 | 2 | 0 | 0 | 57 | killing at 4 ppm (E. aerogenes; pH 8.0): 100%; killing at 8 ppm (E. aerogenes; pH 8.0): 100%; killing at 10 ppm (E. aerogenes; pH 6.0): 100%; killing at 10 ppm (E. aerogenes; pH 8.0): 100%; killing at 20 ppm (E. aerogenes; pH 6.0): 100%; killing at 20 ppm (E. aerogenes; pH 8.0): 100%; killing at 30 ppm (E. aerogenes; pH 6.0): 100%; killing at 30 ppm (E. aerogenes; pH 8.0): 100%
COc1ccc(C(=O)CBr)cc1Br [Compound 1, 2,3'-dibromo-4'-methoxyacetophenone] | + | + | + | 5 | 8 | 5 | 8 | 6 | 9 | 6 | 9 | 7 | 10 | 7 | 10 | 4 | 2 | 0 | 0 | 99 | killing at 4 ppm (E. aerogenes; pH 8.0): 99.9%; killing at 8 ppm (E. aerogenes; pH 8.0): 100%; killing at 10 ppm (E. aerogenes; pH 6.0): 100%; killing at 10 ppm (E. aerogenes; pH 8.0): 100%; killing at 20 ppm (E. aerogenes; pH 6.0): 100%; killing at 20 ppm (E. aerogenes; pH 8.0): 100%; killing at 30 ppm (E. aerogenes; pH 6.0): 100%; killing at 30 ppm (E. aerogenes; pH 8.0): 100%
